Measurements from ChEMBL document CHEMBL1138996, “Biological evaluation of isothiazoloquinolones containing aromatic heterocycles at the 7-position: In vitro activity of a series of potent antibacterial agents that are effective against methicillin-resistant Staphylococcus aureus” (Bioorg Med Chem Lett, 2006).
Values after ≈ are worked out from the molar mass of the structure shown.

Columns and labels:
[1] = target: DNA topoisomerase 4 subunit A (Staphylococcus aureus, UniProt P0C1U9); test: Inhibitory activity against Staphylococcus aureus ATCC 29213 wild type Topo 4
Staphylococcus aureus [2] = test: Antibacterial activity against Staphylococcus aureus ATCC 29213; format: functional
Escherichia coli = test: Antibacterial activity against Escherichia coli ATCC 25922; format: functional
HEp-2 = test: Cytotoxicity against Hep2 cell line; format: functional; conditions: Homo sapiens
Staphylococcus aureus [3] = test: Antibacterial activity against methicillin-resistant Staphylococcus aureus ATCC 700699; format: functional
Enterococcus faecium = test: Antibacterial activity against Enterococcus faecium ATCC 49032; format: functional
Klebsiella pneumoniae = test: Antibacterial activity against Klebsiella pneumoniae ATCC 13883; format: functional
Streptococcus pyogenes = test: Antibacterial activity against Streptococcus pyogenes ATCC 19615; format: functional
Moraxella catarrhalis = test: Antibacterial activity against Moraxella catarrhalis ATCC 8176; format: functional
Enterococcus faecalis = test: Antibacterial activity against Enterococcus faecalis ATCC 29212; format: functional
Haemophilus influenzae = test: Antibacterial activity against Haemophilus influenzae type b ACH-0056; format: functional
Pseudomonas aeruginosa = test: Antibacterial activity against Pseudomonas aeruginosa ATCC 27853; format: functional
Streptococcus pneumoniae = test: Antibacterial activity against Streptococcus pneumoniae ATCC 49619; format: functional
[4] = system: Stenotrophomonas maltophilia; test: Antibacterial activity against Stenotrophomonas maltophilia ATCC 13637; format: functional
Salmonella typhimurium = test: Antibacterial activity against Salmonella Typhimurium ATCC 14028; format: functional, Salmonella enterica subsp. enterica serovar Typhimurium; conditions: Salmonella enterica

DNA topoisomerase 4 subunit A, sequence (P0C1U9 whole entry): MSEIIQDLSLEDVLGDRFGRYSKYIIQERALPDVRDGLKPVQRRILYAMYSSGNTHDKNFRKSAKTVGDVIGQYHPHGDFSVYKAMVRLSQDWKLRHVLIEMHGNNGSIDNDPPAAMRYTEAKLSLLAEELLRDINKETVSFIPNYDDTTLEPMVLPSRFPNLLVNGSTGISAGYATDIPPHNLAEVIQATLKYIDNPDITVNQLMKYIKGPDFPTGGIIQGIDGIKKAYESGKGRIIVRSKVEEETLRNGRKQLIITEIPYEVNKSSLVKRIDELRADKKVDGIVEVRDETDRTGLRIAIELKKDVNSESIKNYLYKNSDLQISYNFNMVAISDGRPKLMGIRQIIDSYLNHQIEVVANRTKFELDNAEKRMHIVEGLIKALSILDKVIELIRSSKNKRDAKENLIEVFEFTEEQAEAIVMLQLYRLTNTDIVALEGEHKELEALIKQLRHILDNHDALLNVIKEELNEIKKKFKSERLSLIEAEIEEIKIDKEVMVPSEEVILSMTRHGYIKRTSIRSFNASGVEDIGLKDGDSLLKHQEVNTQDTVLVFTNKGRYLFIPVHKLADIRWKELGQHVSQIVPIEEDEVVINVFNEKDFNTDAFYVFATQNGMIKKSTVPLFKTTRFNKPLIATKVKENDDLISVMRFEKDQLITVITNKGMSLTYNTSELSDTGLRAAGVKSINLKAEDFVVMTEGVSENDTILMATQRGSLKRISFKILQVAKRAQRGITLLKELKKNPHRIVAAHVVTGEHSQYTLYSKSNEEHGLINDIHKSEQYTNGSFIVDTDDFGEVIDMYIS

SMILES | IC50 [1] [µM] | MIC (Staphylococcus aureus [2]) [µg/mL] | MIC (Escherichia coli) [µg/mL] | CC50 (HEp-2) [µM] | MIC (Staphylococcus aureus [3]) [µg/mL] | MIC (Enterococcus faecium) [µg/mL] | MIC (Klebsiella pneumoniae) [µg/mL] | MIC (Streptococcus pyogenes) [µg/mL] | MIC (Moraxella catarrhalis) [µg/mL] | MIC (Enterococcus faecalis) [µg/mL] | MIC (Haemophilus influenzae) [µg/mL] | MIC (Pseudomonas aeruginosa) [µg/mL] | MIC (Streptococcus pneumoniae) [µg/mL] | MIC [4] [µg/mL] | MIC (Salmonella typhimurium) [µg/mL]
COc1ccc(-c2cc3c(cc2F)c(=O)c2c(=O)[nH]sc2n3C2CC2)c(OC)n1 | 16 | 0.046 (≈ 0.111 µM) | 2 (≈ 4.84 µM) | 98 | 8 (≈ 19.4 µM) |  |  |  |  |  |  |  |  |  | 
Cc1ccc(-c2cc3c(cc2F)c(=O)c2c(=O)[nH]sc2n3C2CC2)cn1 | 8.5 | 0.0037 (≈ 0.0101 µM) | 0.037 (≈ 0.101 µM) | 31 | 1 (≈ 2.72 µM) |  |  |  |  |  |  |  |  |  | 
O=c1[nH]sc2c1c(=O)c1cc(F)c(-c3ccc4cncnc4c3)cc1n2C1CC1 | 29 | 0.06 (≈ 0.148 µM) | 4 (≈ 9.89 µM) | > 100 | > 64 |  |  |  |  |  |  |  |  |  | 
Cc1ccc(-c2cc3c(cc2F)c(=O)c2c(=O)[nH]sc2n3C2CC2)nc1 | 14 | 0.044 (≈ 0.12 µM) | 0.12 (≈ 0.327 µM) | 51 | 32 (≈ 87.1 µM) |  |  |  |  |  |  |  |  |  | 
Cc1ncccc1-c1cc2c(cc1F)c(=O)c1c(=O)[nH]sc1n2C1CC1 | 3.5 | 0.13 (≈ 0.354 µM) | 0.51 (≈ 1.39 µM) | 12 | 1 (≈ 2.72 µM) |  |  |  |  |  |  |  |  |  | 
O=c1[nH]sc2c1c(=O)c1cc(F)c(-c3cncc(C4CCCCN4)c3)cc1n2C1CC1 (stereo not given) | 5 | 0.12 (≈ 0.275 µM) | 0.46 (≈ 1.05 µM) | 6 | 8 (≈ 18.3 µM) |  |  |  |  |  |  |  |  |  | 
O=c1[nH]sc2c1c(=O)c1cc(F)c(-c3ccc4ncccc4c3)cc1n2C1CC1 | 3.2 | 0.0032 (≈ 0.00793 µM) | 0.13 (≈ 0.322 µM) | > 100 | 1 (≈ 2.48 µM) |  |  |  |  |  |  |  |  |  | 
O=c1[nH]sc2c1c(=O)c1cc(F)c(-c3ccccc3)cc1n2C1CC1 | 6.3 | 0.0035 (≈ 0.00993 µM) | 0.06 (≈ 0.17 µM) | > 100 | 16 (≈ 45.4 µM) |  |  |  |  |  |  |  |  |  | 
Cc1ccnc(-c2cc3c(cc2F)c(=O)c2c(=O)[nH]sc2n3C2CC2)c1 | 16 | 0.06 (≈ 0.163 µM) | 0.25 (≈ 0.68 µM) | > 100 | 32 (≈ 87.1 µM) |  |  |  |  |  |  |  |  |  | 
O=c1[nH]sc2c1c(=O)c1cc(F)c(-c3ccncc3)cc1n2C1CC1 | 2.2 | 0.0035 (≈ 0.0099 µM) | 0.028 (≈ 0.0792 µM) |  | 1 (≈ 2.83 µM) |  |  |  |  |  |  |  |  |  | 
O=c1[nH]sc2c1c(=O)c1cc(F)c(-c3cccc4cnccc34)cc1n2C1CC1 | 23 | 0.016 (≈ 0.0397 µM) | 0.061 (≈ 0.151 µM) | 45 | > 64 |  |  |  |  |  |  |  |  |  | 
O=c1[nH]sc2c1c(=O)c1cc(F)c(-c3ccnc(F)c3)cc1n2C1CC1 | 19 | 0.0074 (≈ 0.0199 µM) | 0.059 (≈ 0.159 µM) | > 100 | 1 (≈ 2.69 µM) |  |  |  |  |  |  |  |  |  | 
O=c1[nH]sc2c1c(=O)c1cc(F)c(-c3ccc4[nH]ccc4c3)cc1n2C1CC1 | > 40 | 0.004 (≈ 0.0102 µM) | 0.059 (≈ 0.151 µM) | > 82 | 2 (≈ 5.11 µM) |  |  |  |  |  |  |  |  |  | 
Cc1cc(-c2cc3c(cc2F)c(=O)c2c(=O)[nH]sc2n3C2CC2)cc(C)n1 | 48 | 0.0038 (≈ 0.00996 µM) | 0.031 (≈ 0.0813 µM) | 50 | 0.25 (≈ 0.655 µM) |  |  |  |  |  |  |  |  |  | 
O=c1[nH]sc2c1c(=O)c1cc(F)c(-c3cccc4ncccc34)cc1n2C1CC1 | 33 | 0.016 (≈ 0.0397 µM) | 0.016 (≈ 0.0397 µM) |  | 2 (≈ 4.96 µM) | 0.25 (≈ 0.62 µM) | 0.5 (≈ 1.24 µM) | 0.25 (≈ 0.62 µM) | 0.0081 (≈ 0.0201 µM) | 0.125 (≈ 0.31 µM) | 0.028 (≈ 0.0694 µM) | 2 (≈ 4.96 µM) | 0.061 (≈ 0.151 µM) | 4 (≈ 9.91 µM) | 0.5 (≈ 1.24 µM)
O=c1[nH]sc2c1c(=O)c1cc(F)c(-c3cncnc3)cc1n2C1CC1 | 3.3 | 0.025 (≈ 0.0705 µM) | 0.12 (≈ 0.339 µM) | 18 | 8 (≈ 22.6 µM) |  |  |  |  |  |  |  |  |  | 
COc1ccc(-c2cc3c(cc2F)c(=O)c2c(=O)[nH]sc2n3C2CC2)cn1 | 26 | 0.023 (≈ 0.06 µM) | 0.015 (≈ 0.0391 µM) | > 100 | 16 (≈ 41.7 µM) |  |  |  |  |  |  |  |  |  | 
COc1ncc(-c2cc3c(cc2F)c(=O)c2c(=O)[nH]sc2n3C2CC2)c(OC)n1 | 42 | 0.019 (≈ 0.0458 µM) | 0.14 (≈ 0.338 µM) | > 100 | 1 (≈ 2.41 µM) | 0.17 (≈ 0.41 µM) | 0.5 (≈ 1.21 µM) | 0.079 (≈ 0.191 µM) | 0.021 (≈ 0.0507 µM) | 0.058 (≈ 0.14 µM) | 0.14 (≈ 0.338 µM) | > 64 | 0.079 (≈ 0.191 µM) | 2 (≈ 4.83 µM) | 0.125 (≈ 0.302 µM)
O=C(O)c1cn(C2CC2)c2cc(N3CCNCC3)c(F)cc2c1=O [CIPROFLOXACIN] |  | 0.22 (≈ 0.664 µM) |  | > 100 | 32 (≈ 96.6 µM) | 2 (≈ 6.04 µM) | 0.033 (≈ 0.0996 µM) | 0.28 (≈ 0.845 µM) | 0.033 (≈ 0.0996 µM) | 0.56 (≈ 1.69 µM) | 0.018 (≈ 0.0543 µM) |  | 0.56 (≈ 1.69 µM) | 0.28 (≈ 0.845 µM) | 0.018 (≈ 0.0543 µM)
COc1c(N2C[C@@H]3CCCN[C@@H]3C2)c(F)cc2c(=O)c(C(=O)O)cn(C3CC3)c12 [MOXIFLOXACIN] | 0.8 | 0.061 (≈ 0.152 µM) | 0.013 (≈ 0.0324 µM) | > 100 | 2 (≈ 4.98 µM) | 0.125 (≈ 0.311 µM) | 0.031 (≈ 0.0772 µM) | 0.061 (≈ 0.152 µM) | 0.061 (≈ 0.152 µM) | 0.125 (≈ 0.311 µM) | 0.013 (≈ 0.0324 µM) | 1 (≈ 2.49 µM) | 0.125 (≈ 0.311 µM) | 0.031 (≈ 0.0772 µM) | 0.061 (≈ 0.152 µM)
